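Where inhibition never reached the appropriate level, the endpoint shown equals the highest concentration tested. Otherwise, values were interpolated linearly from a five-concentration, 48-hour dose response in 96-well plates. The concentration for 50% growth inhibition is given as GI50.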 Active and inactive are the calls of the source. No stated cut-off is given here; in the data, active = GI50 up to about 1.1 µM and inactive = higher.
Columns and labels:
Assay in all cases: growth of human tumour cells (NCI), 48 h
A498 = test system: A498
A549 = test system: A549
CAKI-1 = test system: CAKI-1
DU-145 = test system: DU-145
HCC 2998 = test system: HCC 2998
HCT-15 = test system: HCT-15
HOP-62 = test system: HOP-62
IGROV-1 = test system: IGROV-1
KM12 = test system: KM12
LOX IMVI = test system: LOX IMVI
MDA-MB-231 = test system: MDA-MB-231
MDA-N = test system: MDA-N
MOLT-4 = test system: MOLT-4
OVCAR-4 = test system: OVCAR-4
RPMI-8226 = test system: RPMI-8226
RXF 393 = test system: RXF 393
SF-539 = test system: SF-539
U-251 = test system: U-251
UACC-257 = test system: UACC-257
SF-268 = test system: SF-268

Row | SMILES | GI50 (A498) | GI50 (A549) | GI50 (CAKI-1) | GI50 (DU-145) | GI50 (HCC 2998) | GI50 (HCT-15) | GI50 (HOP-62) | GI50 (IGROV-1) | GI50 (KM12) | GI50 (LOX IMVI) | GI50 (MDA-MB-231) | GI50 (MDA-N) | GI50 (MOLT-4) | GI50 (OVCAR-4) | GI50 (RPMI-8226) | GI50 (RXF 393) | GI50 (SF-539) | GI50 (U-251) | GI50 (UACC-257) | GI50 (SF-268)
1 | c1ccc2c(c1)c(N1CCCCC1)cc1nc3c(cc(N4CCCCC4)c4ccccc43)nc12 | > 100 µM (inactive) | > 100 µM (inactive) | > 100 µM (inactive) | > 100 µM (inactive) | > 100 µM (inactive) | > 100 µM | > 100 µM (inactive) | > 100 µM (inactive) | > 100 µM (inactive) | > 100 µM (inactive) | > 100 µM (inactive) | > 100 µM (inactive) | > 100 µM (inactive) | > 100 µM (inactive) | > 100 µM (inactive) | > 100 µM (inactive) | > 100 µM (inactive) | > 100 µM (inactive) | > 100 µM (inactive) | 
2 | O=c1cc(N2CCN(c3cc(=O)n4ccccc4n3)CC2)oc2ccccc12 | > 84.5 µM (inactive) | 32.3 µM (inactive) | 34 µM (inactive) | > 100 µM (inactive) | 33.5 µM (inactive) | 30.6 µM |  | 95.5 µM (inactive) | 35.4 µM (inactive) | > 100 µM (inactive) | 61.9 µM (inactive) | > 100 µM (inactive) | 33.6 µM (inactive) | > 100 µM (inactive) | 23 µM (inactive) | 36.1 µM (inactive) | > 100 µM (inactive) | > 58.1 µM (inactive) | > 24 µM (inactive) | 25.6 µM (inactive)
3 | NC(=O)NOCC1NC(=O)NC1=O (configuration not stated) | > 100 µM (inactive) | > 100 µM (inactive) | > 100 µM (inactive) | > 100 µM (inactive) |  | > 100 µM | > 100 µM (inactive) | > 100 µM (inactive) | > 100 µM (inactive) | > 100 µM (inactive) | > 100 µM (inactive) | > 100 µM (inactive) | > 100 µM (inactive) | > 100 µM (inactive) | > 100 µM (inactive) | > 100 µM (inactive) | > 100 µM (inactive) | > 100 µM (inactive) | > 100 µM (inactive) | > 100 µM (inactive)
4 | CN(C)c1ccc(C(Cc2ccccc2)C2NC(=S)NC2=O)cc1 (configuration not stated) | > 100 µM (inactive) | > 100 µM (inactive) | > 100 µM (inactive) | > 100 µM (inactive) |  | > 100 µM | > 100 µM (inactive) | > 100 µM (inactive) | > 100 µM (inactive) | > 100 µM (inactive) | > 100 µM (inactive) | > 100 µM (inactive) | 61.1 µM (inactive) | 28.4 µM (inactive) | 97.7 µM (inactive) | > 100 µM (inactive) | 47.8 µM (inactive) | > 94 µM (inactive) | > 100 µM (inactive) | > 100 µM (inactive)
5 | COc1ccccc1/C=C/c1c(N)ncnc1Nc1cccc(Cl)c1 | 12.7 µM (inactive) | 14.6 µM (inactive) | 20.9 µM (inactive) | 36.6 µM (inactive) | 27.4 µM (inactive) | 15.9 µM | 19.4 µM (inactive) | 1.69 µM (inactive) | 36.5 µM (inactive) |  | 17.7 µM (inactive) | 25 µM (inactive) | 0.311 µM (active) | 14.6 µM (inactive) | 0.318 µM (active) | 16 µM (inactive) | 18.3 µM (inactive) | 15.7 µM (inactive) | 19.3 µM (inactive) | 16.1 µM (inactive)
6 | C#C[C@]1(O)[C@@H](CO)O[C@@H](n2ccc(N)nc2=O)[C@@H]1O |  | < 0.01 µM (active) | < 0.01 µM (active) | < 0.01 µM (active) | < 0.0135 µM (active) | < 0.01 µM |  | 0.028 µM (active) | < 0.0127 µM (active) | < 0.01 µM (active) | 0.0908 µM (active) | 0.0121 µM (active) | 0.0101 µM (active) | 0.18 µM (active) | < 0.01 µM (active) | 0.0581 µM (active) | 0.111 µM (active) | 0.0263 µM (active) | 0.111 µM (active) | 0.019 µM (active)
7 | Cc1cc(C)nc(NS(=O)(=O)c2ccc(NNc3c4ccccc4nc4c(C(=O)Nc5ccc(S(N)(=O)=O)cc5)cccc34)cc2)n1 |  | > 100 µM (inactive) | 50.1 µM (inactive) | 42.6 µM (inactive) | 20.1 µM (inactive) | > 100 µM | 33.4 µM (inactive) | 34.6 µM (inactive) | 34 µM (inactive) | 19.2 µM (inactive) | 13.3 µM (inactive) | 49.5 µM (inactive) | 17.1 µM (inactive) | 49.5 µM (inactive) | 23.3 µM (inactive) | 40.1 µM (inactive) | 40.7 µM (inactive) | 14.1 µM (inactive) | > 100 µM (inactive) | 29.9 µM (inactive)
8 | CC1=NN(c2ccccc2)C(=O)/C1=C\c1c(C)[nH]n(-c2ccccc2)c1=O | > 100 µM (inactive) | > 100 µM (inactive) | > 100 µM (inactive) | > 100 µM (inactive) | > 100 µM (inactive) | > 100 µM | > 100 µM (inactive) | > 100 µM (inactive) | > 100 µM (inactive) |  | > 100 µM (inactive) | > 100 µM (inactive) | > 100 µM (inactive) | > 100 µM (inactive) | 28.4 µM (inactive) | 35.1 µM (inactive) | > 100 µM (inactive) | > 100 µM (inactive) | > 100 µM (inactive) | > 100 µM (inactive)
9 | COc1cccc2c1[C@H]1CO[C@H]3C4C[C@H](C(=O)O)C([C@@H](C2)N13)N4C (some centres not stated) |  | 8.18 µM (inactive) |  | 0.0423 µM (active) | 2.58 µM (inactive) | 1.67 µM |  | 4.51 µM (inactive) |  | 1.36 µM (inactive) | 0.205 µM (active) | 0.17 µM (active) | 1.69 µM (inactive) | 5 µM (inactive) |  | 1.19 µM (inactive) | 1.56 µM (inactive) | 1.41 µM (inactive) | 1.91 µM (inactive) | 1.79 µM (inactive)
10 | OCC1c2ccccc2-n2nc(-c3ccccc3)c(O)c21 (configuration not stated) |  | 44.2 µM (inactive) | 17.8 µM (inactive) | 68.5 µM (inactive) | 16.3 µM (inactive) | 14.9 µM | 41.9 µM (inactive) | 36.2 µM (inactive) | 18.4 µM (inactive) | 20.7 µM (inactive) | 29.2 µM (inactive) | 46.1 µM (inactive) | 31 µM (inactive) | 26.9 µM (inactive) |  | 17.7 µM (inactive) | 43.1 µM (inactive) | 19.4 µM (inactive) | 47 µM (inactive) | 36.9 µM (inactive)
11 | COC(=O)[C@H]1[C@H](OC(=O)[C@@H](OC)c2ccccc2)ON2CC[C@@H](OC(=O)c3ccccc3)[C@H]12 | 9.38 µM (inactive) | > 100 µM (inactive) | 45.2 µM (inactive) | > 100 µM (inactive) | > 100 µM (inactive) | > 100 µM | 35.1 µM (inactive) | 49.9 µM (inactive) | > 100 µM (inactive) | > 100 µM (inactive) | 74.3 µM (inactive) | > 100 µM (inactive) | > 100 µM (inactive) | > 100 µM (inactive) | > 100 µM (inactive) | 64.4 µM (inactive) |  | 70.1 µM (inactive) | > 100 µM (inactive) | 54.3 µM (inactive)
12 | O=C1OC(C2=CC(=O)c3ccccc3C2=O)C(Cl)=C1Cl (configuration not stated) | 42.8 µM (inactive) | 89.5 µM (inactive) | 67.9 µM (inactive) | 39.7 µM (inactive) | 25.1 µM (inactive) | 20 µM | 33.1 µM (inactive) |  | 77.4 µM (inactive) | 20.2 µM (inactive) | 11.6 µM (inactive) | 39.5 µM (inactive) | 34.4 µM (inactive) |  | 19.5 µM (inactive) | 25.2 µM (inactive) | 27.4 µM (inactive) | 28.1 µM (inactive) | 77.8 µM (inactive) | 27.2 µM (inactive)
13 | COC(=O)Nc1nc2cc(Oc3ccc4nc(NC(=O)OC)[nH]c4c3)ccc2[nH]1 |  | 2.25 µM (inactive) | 2.32 µM (inactive) | 0.791 µM (active) | 0.984 µM (active) | 1.28 µM | 1.56 µM (inactive) | 1.45 µM (inactive) | 0.376 µM (active) | 2.01 µM (inactive) | 1.68 µM (inactive) | 0.105 µM (active) | 1 µM (active) | 1.77 µM (inactive) | 0.929 µM (active) | 0.74 µM (active) | 0.381 µM (active) | 0.681 µM (active) |  | 1.36 µM (inactive)
14 | CC(=O)NC(CS/N=N/c1[nH]cnc1C(N)=O)C(=O)O (configuration not stated) |  | > 100 µM (inactive) | 2.55 µM (inactive) | 1.78 µM (inactive) | 4.41 µM (inactive) | 19.5 µM | 35.9 µM (inactive) | 5.81 µM (inactive) | 6.71 µM (inactive) | 0.343 µM (active) | 2.2 µM (inactive) | 5.05 µM (inactive) | 3.38 µM (inactive) | 3.31 µM (inactive) | 1.46 µM (inactive) | > 100 µM (inactive) | 7.87 µM (inactive) | > 64.9 µM (inactive) | 39.3 µM (inactive) | 4.29 µM (inactive)
15 | C/C=C(/C)C(=O)O[C@@H]1CCN2CC[C@H](COC(=O)/C(=C/C)CO)C12 (some centres not stated) |  | > 100 µM (inactive) | > 100 µM (inactive) | > 100 µM (inactive) | 20.7 µM (inactive) | > 100 µM | > 100 µM (inactive) | > 100 µM (inactive) | > 100 µM (inactive) | 61.8 µM (inactive) | > 100 µM (inactive) | 39.2 µM (inactive) | 25.9 µM (inactive) | > 100 µM (inactive) | 33.5 µM (inactive) | > 44.9 µM (inactive) | 84.1 µM (inactive) | > 100 µM (inactive) | > 53.8 µM (inactive) | > 100 µM (inactive)

Source: ChEMBL document CHEMBL1201862, “PubChem BioAssay data set” (2004)
